Experimental data published in US10219516B2, “Molecules having pesticidal utility, and intermediates, compositions, and processes, related thereto” (priority 2015, dated 2019).

Legend:
Format in all cases: in vivo
[1] = system: Cabbage Looper (Trichoplusia ni, TRIPNI); assay: Bioassay on Cabbage Looper (CL), 128-well diet tray assay; conditions: Trichoplusia ni; Cabbage Looper, 128-well diet tray assay; read-out: CL rating
Outline: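 Test molecule is dissolved in 90:10 acetone-water and applied at 50 μg/cm^2 onto artificial diet, then dried. One to five second-instar larvae go into each of eight wells. Trays, sealed but vented, stay at 25° C., 14:10 light-dark, five to seven days, after which mortality is averaged.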

[2] = system: Yellow Fever Mosquito (Aedes aegypti, AEDSAE); assay: Bioassay on Yellow Fever Mosquito (YFM), 96-well plate larval assay; conditions: Yellow Fever Mosquito, 96-well plate larval assay
Outline: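 Aedes aegypti larvae (about 1 day old) in liver-powder water were added to plates dispensed from DMSO master plates (4000 ppm stock) diluted with 90:10 water/acetone; six replicate plates per master. Lidded plates were held at room temperature for 3 days, then each well was scored for mortality.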

[3] = system: Beet Armyworm (Spodoptera exigua, LAPHEG); assay: Bioassay on Beet Armyworm (BAW), 128-well diet tray assay; conditions: Beet Armyworm, 128-well diet tray assay, read-out: BAW rating
Outline: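 Artificial diet surface-treated with 50 μg/cm^2 test molecule in 90:10 acetone-water, dried, then infested with one to five second instar larvae per well. Held covered and vented at 25° C., 14:10 light-dark for five to seven days; percent mortality recorded per well and averaged over eight wells.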

Structure (SMILES) | pest or weed control at 50 µg/cm2 [1] | YFM rating [2] | pest or weed control at 50 µg/cm2 [3]
O=C(Nc1ccc(F)cc1F)c1cc(NC(=O)[C@H]2[C@H](c3ccc(Cl)c(C(F)F)c3)C2(Cl)Cl)ccc1Cl (relative stereo) [F559, 2-Chloro-5-(trans-2,2-dichloro-3-(4-chloro-3-(difluoromethyl)phenyl)cyclopropane-1-carboxamido)-N-(2,4-difluorophenyl)benzamide] | 50 to 100% | A (80-100) | 50 to 100%
O=C(Nc1ccc(F)cc1F)c1cc(NC(=O)[C@H]2[C@H](c3cc(F)cc(C(F)F)c3)C2(Cl)Cl)ccc1Cl (relative stereo) [F560, 2-Chloro-5-(trans-2,2-dichloro-3-(3-(difluoromethyl)-5-fluorophenyl)cyclopropane-1-carboxamido)-N-(2,4-difluorophenyl)benzamide] | 50 to 100% | A (80-100) | 50 to 100%
O=C(Nc1ccc(F)cc1F)c1cc(NC(=O)[C@H]2[C@H](c3ccc(F)c(C(F)F)c3)C2(Cl)Cl)ccc1Cl (relative stereo) [F561, 2-Chloro-5-(trans-2,2-dichloro-3-(3-(difluoromethyl)-4-fluorophenyl)cyclopropane-1-carboxamido)-N-(2,4-difluorophenyl)benzamide] | 50 to 100% | A (80-100) | 50 to 100%
O=C(Nc1ccc(F)cc1F)c1cc(NC(=O)[C@H]2[C@H](c3ccc(C(F)F)c(Cl)c3)C2(Cl)Cl)ccc1Cl (relative stereo) [F562, 2-Chloro-5-(trans-2,2-dichloro-3-(3-chloro-4-(difluoromethyl)phenyl)cyclopropane-1-carboxamido)-N-(2,4-difluorophenyl)benzamide] | 50 to 100% | A (80-100) | 50 to 100%
O=C(Nc1ccc(F)cc1F)c1cc(NC(=O)[C@H]2[C@H](c3ccc(C(F)F)c(F)c3)C2(Cl)Cl)ccc1Cl (relative stereo) [F563, 2-Chloro-5-(trans-2,2-dichloro-3-(4-(difluoromethyl)-3-fluorophenyl)cyclopropane-1-carboxamido)-N-(2,4-difluorophenyl)benzamide] | 50 to 100% | A (80-100) | 50 to 100%
O=C(Nc1ccc(F)cc1F)c1cc(NC(=O)[C@H]2[C@H](c3cccc(C(F)F)c3)C2(Cl)Cl)ccc1Cl (relative stereo) [F564, 2-Chloro-5-(trans-2,2-dichloro-3-(3-(difluoromethyl)phenyl)cyclopropane-1-carboxamido)-N-(2,4-difluorophenyl)benzamide] | 50 to 100% | A (80-100) | 50 to 100%
O=C(Nc1ccc(F)cc1F)c1cc(NC(=O)[C@H]2[C@H](c3ccc(C(F)F)cc3)C2(Cl)Cl)ccc1Cl (relative stereo) [F565, 2-Chloro-5-(trans-2,2-dichloro-3-(4-(difluoromethyl)phenyl)cyclopropane-1-carboxamido)-N-(2,4-difluorophenyl)benzamide] | 50 to 100% | A (80-100) | 50 to 100%
C=Cc1c(F)cc([C@H]2[C@H](C(=O)Nc3ccc(Cl)c(C(=O)Nc4ccc(F)cc4F)c3)C2(Cl)Cl)cc1F (relative stereo) [F566, 2-Chloro-5-(trans-2,2-dichloro-3-(3,5-difluoro-4-vinylphenyl)cyclopropane-1-carboxamido)-N-(2,4-difluorophenyl)benzamide] | 50 to 100% | A (80-100) | 50 to 100%
Cc1cc(N)ccc1NC(=O)c1cc(NC(=O)[C@H]2[C@H](c3ccc(Cl)c(Cl)c3)C2(Cl)Cl)ccc1Cl (relative stereo) [F574, trans-N-(4-Amino-2-methylphenyl)-2-chloro-5-(2,2-dichloro-3-(3,4-dichlorophenyl)cyclopropane-1-carboxamido)benzamide] | 50 to 100% | A (80-100) | 50 to 100%
O=C(Nc1ncc(F)cc1F)c1cc(NC(=O)[C@H]2[C@H](c3ccc(Cl)c(C(F)F)c3)C2(Cl)Cl)ccc1Cl (relative stereo) [F585, 2-Chloro-5-(trans-2,2-dichloro-3-(4-chloro-3-(difluoromethyl)phenyl)cyclopropane-1-carboxamido)-N-(3,5-difluoropyridin-2-yl)benzamide] | 50 to 100% | A (80-100) | 50 to 100%
O=C(Nc1ncc(F)cc1F)c1cc(NC(=O)[C@H]2[C@H](c3cc(F)cc(C(F)F)c3)C2(Cl)Cl)ccc1Cl (relative stereo) [F586, 2-Chloro-5-(trans-2,2-dichloro-3-(3-(difluoromethyl)-5-fluorophenyl)cyclopropane-1-carboxamido)-N-(3,5-difluoropyridin-2-yl)benzamide] | 50 to 100% | A (80-100) | 50 to 100%
O=C(Nc1ncc(F)cc1F)c1cc(NC(=O)[C@H]2[C@H](c3ccc(F)c(C(F)F)c3)C2(Cl)Cl)ccc1Cl (relative stereo) [F587, 2-Chloro-5-(trans-2,2-dichloro-3-(3-(difluoromethyl)-4-fluorophenyl)cyclopropane-1-carboxamido)-N-(3,5-difluoropyridin-2-yl)benzamide] | 50 to 100% | A (80-100) | 50 to 100%
O=C(Nc1ncc(F)cc1F)c1cc(NC(=O)[C@H]2[C@H](c3ccc(C(F)F)c(Cl)c3)C2(Cl)Cl)ccc1Cl (relative stereo) [F588, 2-Chloro-5-(trans-2,2-dichloro-3-(3-chloro-4-(difluoromethyl)phenyl)cyclopropane-1-carboxamido)-N-(3,5-difluoropyridin-2-yl)benzamide] | 50 to 100% | A (80-100) | 50 to 100%
O=C(Nc1ncc(F)cc1F)c1cc(NC(=O)[C@H]2[C@H](c3ccc(C(F)F)c(F)c3)C2(Cl)Cl)ccc1Cl (relative stereo) [F589, 2-chloro-5-(trans-2,2-dichloro-3-(4-(difluoromethyl)-3-fluorophenyl)cyclopropane-1-carboxamido)-N-(3,5-difluoropyridin-2-yl)benzamide] | 50 to 100% | A (80-100) | 50 to 100%
O=C(Nc1ncc(F)cc1F)c1cc(NC(=O)[C@H]2[C@H](c3cccc(C(F)F)c3)C2(Cl)Cl)ccc1Cl (relative stereo) [F590, 2-Chloro-5-(trans-2,2-dichloro-3-(3-(difluoromethyl)phenyl)cyclopropane-1-carboxamido)-N-(3,5-difluoropyridin-2-yl)benzamide] | 50 to 100% | A (80-100) | 50 to 100%
O=C(Nc1ncc(F)cc1F)c1cc(NC(=O)[C@H]2[C@H](c3ccc(C(F)F)cc3)C2(Cl)Cl)ccc1Cl (relative stereo) [F591, 2-Chloro-5-(trans-2,2-dichloro-3-(4-(difluoromethyl)phenyl)cyclopropane-1-carboxamido)-N-(3,5-difluoropyridin-2-yl)benzamide] | 50 to 100% | A (80-100) | 50 to 100%
CN(C(=O)c1cc(NC(=O)[C@H]2[C@H](c3cc(Cl)cc(C(F)F)c3)C2(Cl)Cl)ccc1Cl)c1ccc(F)cc1 (relative stereo) [F592, 2-Chloro-5-(trans-2,2-dichloro-3-(3-chloro-5-(difluoromethyl)phenyl)cyclopropane-1-carboxamido)-N-(4-fluorophenyl)-N-methylbenzamide] | 50 to 100% | A (80-100) | 50 to 100%
CN(C(=O)c1cc(NC(=O)[C@H]2[C@H](c3ccc(Cl)c(C(F)F)c3)C2(Cl)Cl)ccc1Cl)c1ccc(F)cc1 (relative stereo) [F593, 2-Chloro-5-(trans-2,2-dichloro-3-(4-chloro-3-(difluoromethyl)phenyl)cyclopropane-1-carboxamido)-N-(4-fluorophenyl)-N-methylbenzamide] | 50 to 100% | A (80-100) | 50 to 100%
CN(C(=O)c1cc(NC(=O)[C@H]2[C@H](c3cc(F)cc(C(F)F)c3)C2(Cl)Cl)ccc1Cl)c1ccc(F)cc1 (relative stereo) [F594, 2-Chloro-5-(trans-2,2-dichloro-3-(3-(difluoromethyl)-5-fluorophenyl)cyclopropane-1-carboxamido)-N-(4-fluorophenyl)-N-methylbenzamide] | 50 to 100% | A (80-100) | 50 to 100%
CN(C(=O)c1cc(NC(=O)[C@H]2[C@H](c3ccc(F)c(C(F)F)c3)C2(Cl)Cl)ccc1Cl)c1ccc(F)cc1 (relative stereo) [F595, 2-Chloro-5-(trans-2,2-dichloro-3-(3-(difluoromethyl)-4-fluorophenyl)cyclopropane-1-carboxamido)-N-(4-fluorophenyl)-N-methylbenzamide] | 50 to 100% | A (80-100) | 50 to 100%
CN(C(=O)c1cc(NC(=O)[C@H]2[C@H](c3ccc(C(F)F)c(Cl)c3)C2(Cl)Cl)ccc1Cl)c1ccc(F)cc1 (relative stereo) [F596, 2-Chloro-5-(trans-2,2-dichloro-3-(3-chloro-4-(difluoromethyl)phenyl)cyclopropane-1-carboxamido)-N-(4-fluorophenyl)-N-methylbenzamide] | 50 to 100% | A (80-100) | 50 to 100%
